Experiments:
Nitric oxide synthase 1 [1] = molecular target: Nitric oxide synthase 1 (Homo sapiens, UniProt P29475); assay: Inhibitory activity against human neuronal nitric oxide synthase (nNOS)
Nitric oxide synthase 3 = molecular target: T1, Nitric oxide synthase 3 (Homo sapiens, UniProt P29474); assay: Inhibitory activity against human endothelial nitric oxide synthase (eNOS)
T1 sequence (P29474 whole entry): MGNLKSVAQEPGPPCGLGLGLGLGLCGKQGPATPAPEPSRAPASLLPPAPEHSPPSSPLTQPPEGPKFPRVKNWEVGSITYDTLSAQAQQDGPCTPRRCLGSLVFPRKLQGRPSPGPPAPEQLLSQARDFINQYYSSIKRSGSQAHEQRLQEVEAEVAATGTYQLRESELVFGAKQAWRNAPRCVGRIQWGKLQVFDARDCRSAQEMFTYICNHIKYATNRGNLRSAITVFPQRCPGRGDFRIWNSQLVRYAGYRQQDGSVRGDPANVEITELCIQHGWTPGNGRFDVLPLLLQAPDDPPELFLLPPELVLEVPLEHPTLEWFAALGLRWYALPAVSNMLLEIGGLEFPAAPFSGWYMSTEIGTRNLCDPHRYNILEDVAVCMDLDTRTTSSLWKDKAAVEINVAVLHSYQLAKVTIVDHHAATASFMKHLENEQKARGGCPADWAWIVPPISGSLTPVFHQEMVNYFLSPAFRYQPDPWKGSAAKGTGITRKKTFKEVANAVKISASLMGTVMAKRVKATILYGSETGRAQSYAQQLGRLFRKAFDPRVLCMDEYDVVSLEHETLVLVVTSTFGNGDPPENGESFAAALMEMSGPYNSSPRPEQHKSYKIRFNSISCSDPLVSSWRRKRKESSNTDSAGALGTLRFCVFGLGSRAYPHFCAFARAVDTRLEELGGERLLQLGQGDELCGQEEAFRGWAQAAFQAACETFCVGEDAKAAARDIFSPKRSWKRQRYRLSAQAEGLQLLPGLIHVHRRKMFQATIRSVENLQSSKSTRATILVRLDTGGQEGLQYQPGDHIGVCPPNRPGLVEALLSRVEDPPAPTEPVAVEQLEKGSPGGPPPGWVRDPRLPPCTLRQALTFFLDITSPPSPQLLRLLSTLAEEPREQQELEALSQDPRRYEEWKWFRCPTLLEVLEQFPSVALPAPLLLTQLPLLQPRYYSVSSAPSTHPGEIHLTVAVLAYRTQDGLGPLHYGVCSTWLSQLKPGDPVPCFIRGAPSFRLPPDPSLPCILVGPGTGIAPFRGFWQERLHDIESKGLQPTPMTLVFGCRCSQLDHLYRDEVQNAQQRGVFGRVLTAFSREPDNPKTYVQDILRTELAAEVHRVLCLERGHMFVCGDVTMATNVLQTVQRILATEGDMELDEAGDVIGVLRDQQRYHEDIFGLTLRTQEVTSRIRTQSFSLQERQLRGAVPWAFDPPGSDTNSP

Nitric oxide synthase 1 [2] = molecular target: Nitric oxide synthase 1 (Rattus norvegicus, UniProt P29476); assay: Inhibitory activity against rat neuronal nitric oxide synthase (nNOS)
Nitric oxide synthase 1 (Rattus norvegicus, UniProt P29476), sequence (P29476 whole entry): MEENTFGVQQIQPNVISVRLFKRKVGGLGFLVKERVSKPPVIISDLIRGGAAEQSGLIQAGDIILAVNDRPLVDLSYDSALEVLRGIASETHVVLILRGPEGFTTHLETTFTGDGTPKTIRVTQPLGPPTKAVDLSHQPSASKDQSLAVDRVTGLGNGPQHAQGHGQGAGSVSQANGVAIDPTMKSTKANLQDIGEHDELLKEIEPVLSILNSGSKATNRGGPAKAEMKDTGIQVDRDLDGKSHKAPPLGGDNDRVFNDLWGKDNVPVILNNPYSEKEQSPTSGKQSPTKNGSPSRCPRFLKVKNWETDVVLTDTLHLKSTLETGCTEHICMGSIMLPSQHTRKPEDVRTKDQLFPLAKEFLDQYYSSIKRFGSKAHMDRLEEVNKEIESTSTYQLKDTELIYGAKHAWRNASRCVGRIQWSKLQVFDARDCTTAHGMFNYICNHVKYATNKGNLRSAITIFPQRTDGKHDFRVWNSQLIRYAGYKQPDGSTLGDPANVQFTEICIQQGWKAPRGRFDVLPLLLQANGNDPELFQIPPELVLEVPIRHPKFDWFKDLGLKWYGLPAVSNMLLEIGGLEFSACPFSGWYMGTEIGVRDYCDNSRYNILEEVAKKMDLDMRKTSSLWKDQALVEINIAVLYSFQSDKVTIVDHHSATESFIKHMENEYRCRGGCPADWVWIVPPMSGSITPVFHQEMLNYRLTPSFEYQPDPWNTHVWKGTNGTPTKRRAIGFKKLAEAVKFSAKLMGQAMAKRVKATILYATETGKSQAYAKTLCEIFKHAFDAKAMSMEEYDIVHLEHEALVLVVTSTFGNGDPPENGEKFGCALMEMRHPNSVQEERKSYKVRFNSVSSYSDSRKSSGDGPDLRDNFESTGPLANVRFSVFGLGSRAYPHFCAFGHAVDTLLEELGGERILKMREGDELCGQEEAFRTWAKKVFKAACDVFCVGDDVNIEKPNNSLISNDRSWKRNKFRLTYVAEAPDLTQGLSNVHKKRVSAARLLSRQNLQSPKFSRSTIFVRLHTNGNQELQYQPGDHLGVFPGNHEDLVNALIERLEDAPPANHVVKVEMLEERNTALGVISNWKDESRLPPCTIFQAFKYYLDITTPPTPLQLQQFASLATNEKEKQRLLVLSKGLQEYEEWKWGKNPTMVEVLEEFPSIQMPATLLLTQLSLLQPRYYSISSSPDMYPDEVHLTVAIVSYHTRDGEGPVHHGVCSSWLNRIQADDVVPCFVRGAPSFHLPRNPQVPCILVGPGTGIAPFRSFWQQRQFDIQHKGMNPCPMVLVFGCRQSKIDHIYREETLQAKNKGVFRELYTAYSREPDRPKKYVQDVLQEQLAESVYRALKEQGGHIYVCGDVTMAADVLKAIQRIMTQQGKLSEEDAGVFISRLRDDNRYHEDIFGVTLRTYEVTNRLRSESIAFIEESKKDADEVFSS

D(2) dopamine receptor [3] = molecular target: T2, D(2) dopamine receptor (Homo sapiens, UniProt P14416); assay: Binding ability of compound to human Dopamine receptor D2
T2 sequence (P14416 whole entry): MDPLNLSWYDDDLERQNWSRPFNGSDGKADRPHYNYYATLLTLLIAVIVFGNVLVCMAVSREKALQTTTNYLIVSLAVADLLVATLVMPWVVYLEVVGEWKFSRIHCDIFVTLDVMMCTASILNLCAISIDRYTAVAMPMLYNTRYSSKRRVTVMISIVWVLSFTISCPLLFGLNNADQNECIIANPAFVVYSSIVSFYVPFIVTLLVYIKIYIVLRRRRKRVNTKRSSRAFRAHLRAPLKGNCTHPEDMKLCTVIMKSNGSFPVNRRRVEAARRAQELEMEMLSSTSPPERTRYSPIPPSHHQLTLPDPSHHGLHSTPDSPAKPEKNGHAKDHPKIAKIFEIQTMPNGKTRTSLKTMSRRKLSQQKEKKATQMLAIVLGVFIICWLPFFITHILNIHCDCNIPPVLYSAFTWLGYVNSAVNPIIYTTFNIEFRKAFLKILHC

[4] = molecular target: T3, 5-hydroxytryptamine receptor 1A (Homo sapiens, UniProt P08908); assay: Binding affinity of compound to human 5-hydroxytryptamine 1A receptor
T3 sequence (P08908 whole entry): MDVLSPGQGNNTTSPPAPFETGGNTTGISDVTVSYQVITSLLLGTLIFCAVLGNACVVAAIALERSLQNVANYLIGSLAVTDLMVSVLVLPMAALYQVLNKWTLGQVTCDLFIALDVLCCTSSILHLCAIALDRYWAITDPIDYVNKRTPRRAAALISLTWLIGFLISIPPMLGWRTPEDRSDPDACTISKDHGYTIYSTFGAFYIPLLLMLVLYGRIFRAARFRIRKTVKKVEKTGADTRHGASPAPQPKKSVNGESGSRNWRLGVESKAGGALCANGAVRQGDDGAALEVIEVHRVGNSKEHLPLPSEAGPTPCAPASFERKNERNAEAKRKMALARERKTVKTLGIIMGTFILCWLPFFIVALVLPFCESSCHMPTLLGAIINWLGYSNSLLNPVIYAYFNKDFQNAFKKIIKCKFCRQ

[5] = molecular target: 5-hydroxytryptamine receptor 2A (Homo sapiens, UniProt P28223); assay: Binding affinity of compound to human 5-hydroxytryptamine 2A receptor
5-hydroxytryptamine receptor 2A, sequence (P28223 whole entry): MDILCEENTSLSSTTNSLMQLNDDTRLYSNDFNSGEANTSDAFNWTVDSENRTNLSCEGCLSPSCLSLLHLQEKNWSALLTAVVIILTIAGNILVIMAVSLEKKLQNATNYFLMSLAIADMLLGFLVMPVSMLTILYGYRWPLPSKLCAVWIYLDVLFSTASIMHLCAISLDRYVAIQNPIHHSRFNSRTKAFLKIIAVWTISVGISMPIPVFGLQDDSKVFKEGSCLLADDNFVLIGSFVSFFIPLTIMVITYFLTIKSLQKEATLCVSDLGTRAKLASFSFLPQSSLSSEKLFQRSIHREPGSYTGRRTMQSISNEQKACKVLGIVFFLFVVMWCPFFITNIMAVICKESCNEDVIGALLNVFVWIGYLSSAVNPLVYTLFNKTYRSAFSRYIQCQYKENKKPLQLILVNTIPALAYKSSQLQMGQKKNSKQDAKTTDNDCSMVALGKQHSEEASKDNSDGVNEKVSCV

[6] = Maximum concentration in plasma at 30 min following 24 mg/kg subcutaneous dose in rats; assay type: ADME, organism-based; design: dose 24 mg/kg, route subcutaneous; details: rat, sc
[7] = Maximum concentration in CSF at 30 min following 24 mg/kg subcutaneous dose in rats; assay type: ADME, organism-based, Cerebrospinal fluid; design: dose 24 mg/kg, route subcutaneous; details: rat, sc
[8] = molecular target: T4, Muscarinic acetylcholine receptor M4 (Homo sapiens, UniProt P08173); assay: Binding ability of compound to m4 muscarinic receptor
T4 sequence (P08173 whole entry): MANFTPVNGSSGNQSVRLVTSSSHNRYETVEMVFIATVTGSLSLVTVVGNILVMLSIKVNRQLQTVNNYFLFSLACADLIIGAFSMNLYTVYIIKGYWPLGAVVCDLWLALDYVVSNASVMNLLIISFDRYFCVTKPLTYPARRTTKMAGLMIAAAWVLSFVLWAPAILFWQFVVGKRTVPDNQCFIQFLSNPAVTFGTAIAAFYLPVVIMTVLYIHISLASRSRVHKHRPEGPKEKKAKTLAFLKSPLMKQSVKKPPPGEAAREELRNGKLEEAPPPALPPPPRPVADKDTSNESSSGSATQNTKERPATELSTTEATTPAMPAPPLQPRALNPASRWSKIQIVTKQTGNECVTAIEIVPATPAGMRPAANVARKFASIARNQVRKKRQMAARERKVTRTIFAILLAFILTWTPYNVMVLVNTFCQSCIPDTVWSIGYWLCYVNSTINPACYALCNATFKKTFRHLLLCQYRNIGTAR

[9] = molecular target: T5, Muscarinic acetylcholine receptor M2 (Homo sapiens, UniProt P08172); assay: Binding affinity of compound to m2 muscarinic receptor
T5 sequence (P08172 whole entry): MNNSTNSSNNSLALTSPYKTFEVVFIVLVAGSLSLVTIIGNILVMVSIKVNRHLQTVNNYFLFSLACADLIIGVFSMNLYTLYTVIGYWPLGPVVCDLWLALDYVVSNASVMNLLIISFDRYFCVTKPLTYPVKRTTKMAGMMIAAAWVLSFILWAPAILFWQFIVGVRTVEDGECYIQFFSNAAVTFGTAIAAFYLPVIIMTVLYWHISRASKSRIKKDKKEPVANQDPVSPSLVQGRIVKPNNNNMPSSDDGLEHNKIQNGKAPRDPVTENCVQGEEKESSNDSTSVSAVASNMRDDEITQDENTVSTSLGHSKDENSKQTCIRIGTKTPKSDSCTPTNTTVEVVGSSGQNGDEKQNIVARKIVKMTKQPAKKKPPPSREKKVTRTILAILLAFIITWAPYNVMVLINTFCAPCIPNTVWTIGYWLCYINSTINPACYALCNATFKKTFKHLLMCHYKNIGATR

D(2) dopamine receptor [10] = molecular target: T2, D(2) dopamine receptor; assay: Binding affinity of compound to Dopamine receptor D2
[11] = Half life in rats; assay type: ADME, organism-based; details: rat, in vivo
[12] = Maximum concentration in whole brain at 30 min following 24 mg/kg subcutaneous dose in rats; assay type: ADME, organism-based; design: dose 24 mg/kg, route subcutaneous; details: rat, sc

Nitric oxide synthase 1 (Homo sapiens, UniProt P29475), sequence (P29475 whole entry): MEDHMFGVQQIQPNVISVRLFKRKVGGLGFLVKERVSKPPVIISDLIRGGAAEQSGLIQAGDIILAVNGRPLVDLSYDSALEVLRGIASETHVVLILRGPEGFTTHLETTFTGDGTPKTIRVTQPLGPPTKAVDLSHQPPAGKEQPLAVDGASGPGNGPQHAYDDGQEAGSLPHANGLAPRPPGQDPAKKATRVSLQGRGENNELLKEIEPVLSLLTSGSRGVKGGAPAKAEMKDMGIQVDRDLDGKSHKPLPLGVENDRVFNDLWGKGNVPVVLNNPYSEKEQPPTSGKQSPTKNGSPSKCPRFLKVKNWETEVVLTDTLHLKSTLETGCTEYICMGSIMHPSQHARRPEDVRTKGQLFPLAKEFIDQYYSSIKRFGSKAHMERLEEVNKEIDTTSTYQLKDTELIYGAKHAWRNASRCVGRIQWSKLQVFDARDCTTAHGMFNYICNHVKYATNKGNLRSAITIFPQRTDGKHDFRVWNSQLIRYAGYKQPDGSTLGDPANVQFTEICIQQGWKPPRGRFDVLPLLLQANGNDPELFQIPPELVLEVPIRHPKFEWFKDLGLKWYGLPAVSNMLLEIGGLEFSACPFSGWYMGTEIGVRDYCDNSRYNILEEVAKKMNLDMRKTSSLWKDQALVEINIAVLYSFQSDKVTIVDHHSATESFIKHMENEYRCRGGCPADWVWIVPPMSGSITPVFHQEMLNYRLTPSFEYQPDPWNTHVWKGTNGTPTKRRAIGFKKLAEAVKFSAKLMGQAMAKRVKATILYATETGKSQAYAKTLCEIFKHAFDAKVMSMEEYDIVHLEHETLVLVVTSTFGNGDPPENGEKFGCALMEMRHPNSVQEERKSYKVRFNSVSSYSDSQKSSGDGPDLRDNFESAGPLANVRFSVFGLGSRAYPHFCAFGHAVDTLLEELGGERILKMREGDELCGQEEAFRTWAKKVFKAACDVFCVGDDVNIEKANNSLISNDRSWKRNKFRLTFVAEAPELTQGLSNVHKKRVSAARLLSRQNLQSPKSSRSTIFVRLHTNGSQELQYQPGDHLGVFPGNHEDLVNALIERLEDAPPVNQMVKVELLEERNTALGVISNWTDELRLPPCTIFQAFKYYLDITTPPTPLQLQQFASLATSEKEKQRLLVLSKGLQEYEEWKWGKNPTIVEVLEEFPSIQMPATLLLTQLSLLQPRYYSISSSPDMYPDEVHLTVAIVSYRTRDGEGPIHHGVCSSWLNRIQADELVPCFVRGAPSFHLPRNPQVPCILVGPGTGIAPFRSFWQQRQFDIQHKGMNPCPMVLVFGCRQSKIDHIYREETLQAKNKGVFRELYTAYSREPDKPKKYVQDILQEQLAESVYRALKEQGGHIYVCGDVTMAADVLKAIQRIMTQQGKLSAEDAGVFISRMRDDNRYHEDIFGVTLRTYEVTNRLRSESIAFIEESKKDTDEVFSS

Row | Structure (SMILES) | IC50 (Nitric oxide synthase 1 [1]) | IC50 (Nitric oxide synthase 3) | IC50 (Nitric oxide synthase 1 [2]) | also measured
1 | CC(C)NC(=O)CN1CCN(CCc2ccc(-c3cccc(N)n3)cc2)CC1 | 0.33 µM | 0.815 µM | 0.256 µM | –
2 | Nc1cccc(-c2ccc(CCN3CCN(c4cccc5cccnc45)CC3)cc2)n1 | 0.212 µM | 0.825 µM | 0.13 µM | Ki (D(2) dopamine receptor [3]): 0.011 µM; Ki [4]: 0.003 µM; Ki [5]: 0.014 µM
3 | O=[N+]([O-])c1cccc2cn[nH]c12 [7-NITROINDAZOLE] | 2.87 µM | – | – | –
4 | Nc1cccc(-c2ccc(CCN3CCN(CC(=O)c4ccccc4)CC3)cc2)n1 | 0.14 µM | 0.887 µM | 0.127 µM | Cmax [6]: 1700 ng/mL; Cmax [7]: 450 ng/mL; Ki [8]: 0.59 µM; Ki [9]: 0.32 µM; IC50 (D(2) dopamine receptor [10]): > 10 µM; half-life [11]: 3.6 h; Cmax [12]: 11000 ng/mL
5 | Nc1cccc(-c2ccc(CCN3CCN(C(=O)Cc4ccccc4)CC3)cc2)n1 | 0.137 µM | 0.685 µM | 0.108 µM | –
6 | CC(C)CN1CCN(CCc2ccc(-c3cccc(N)n3)cc2)CC1 | 0.35 µM | 0.372 µM | 0.193 µM | –
7 | Nc1cccc(-c2ccc(CCN3CCN(CCc4ccccc4)CC3)cc2)n1 | 0.264 µM | 0.448 µM | 0.247 µM | –

— ChEMBL document CHEMBL1131962, “A new class of selective and potent inhibitors of neuronal nitric oxide synthase” (Bioorg Med Chem Lett, 1999)
